For 27 molecules, TGI and GI50 results are on record in PubChem BioAssay (NCI).

The structures appear in SMILES notation.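 Grown in 96-well plates, cells were treated for 48 hours with each compound at five concentrations. Insufficient inhibition: endpoint recorded as highest concentration tested. GI50 is the concentration that inhibits growth by half. TGI denotes the concentration required for complete inhibition of growth.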

Assay in all cases: growth of human tumour cells (NCI), 48 h
Experiment [1] relates to 786-0 renal.
Experiment [2] deals with CAKI-1 renal.
Experiment [3] relates to COLO 205 colon.
Experiment [4] concerns NCI-H226 lung.
For experiment [5], the system named is NCI-H522 lung.
Experiment [6] deals with NCI/ADR-RES ovarian.
For experiment [7], the system named is SK-MEL-5 melanoma.
Experiment [8] deals with SR leukemia.
Experiment [9] relates to UACC-62 melanoma.
Experiment [10] has as its system UO-31 renal.

In the case of `O=[N+]([O-])c1ccc2nc(/C=C(\O)c3ccc(Cl)cc3)c(/C=C(\O)c3ccc(Cl)cc3)nc2c1`, the TGI in [1] was more than 100 µM; in [2], more than 100 µM; in experiment [3], more than 100 µM; in experiment [4], more than 100 µM; in [5] it was 60.7 µM; in [6] it was more than 100 µM. In addition, the TGI in [7], in [8], in experiment [9] and in [10] was more than 100 µM in each case.

As to `Cc1cc2nc(-c3c(N)ncc(C#N)c3-c3ccc(Cl)cc3)[nH]c2cc1C`, the GI50 in experiment [2] is 12.1 µM; in experiment [3], 6.24 µM; in experiment [4] it was 15 µM; in experiment [5], 4.07 µM; in experiment [6] it was 15.7 µM; in [8], 28.7 µM. In experiment [9], the GI50 is 11 µM. Further, the TGI in experiment [2] was more than 100 µM; in experiment [3], 83.4 µM; in [4], 46.3 µM; in experiment [5], 27.9 µM; in experiment [6], more than 100 µM; in experiment [7], 33.4 µM. The results for the TGI in experiment [8] and in [9] were more than 100 µM and 53.2 µM, respectively.

As to `C=CCOC1(CC=C)C(=O)OC2C(O)COC21O` (stereo unspecified), the TGI in [1], in experiment [2], in experiment [3], in experiment [4], in experiment [5] and in experiment [6] was more than 100 µM in each case. Also, the TGI in experiment [7], in [8], in [9] and in experiment [10] was more than 100 µM in each case.

Consider `O=c1nc2ccc3sc4ccccc4c(=O)c3n2c(=O)[nH]1`, for which the TGI in experiment [1], in [2], in experiment [3], in [4], in experiment [5] and in experiment [6] was more than 100 µM throughout. The TGI in [7], in [8] and in experiment [10] was more than 100 µM throughout.

For the molecule `COC1(OC)C=CC(=O)C=C1`, the TGI in [1] was found to be 4.55 µM; in experiment [2] it was 11.6 µM; in experiment [3] it was 28.1 µM; in experiment [4], 10.4 µM; in experiment [5] it was 0.885 µM; in experiment [6], 13.7 µM. In addition, the TGI in experiment [7] is 46.2 µM; in experiment [8] it was more than 100 µM; in experiment [9] it was 4.08 µM; in experiment [10], 4.22 µM.

Turning to `CC(C#N)N(CCc1ccccc1)C(=O)c1ccccc1` (stereo unspecified), the TGI in [1], in experiment [2], in experiment [3], in [4], in experiment [5] and in experiment [6] was more than 100 µM each time. The TGI in experiment [7], in experiment [8], in [9] and in [10] was more than 100 µM throughout.

With `N#C/C(=C1/c2cc([N+](=O)[O-])ccc2-c2c1cc([N+](=O)[O-])cc2[N+](=O)[O-])N1CCCCC1`, the TGI in experiment [1], in [2], in experiment [3], in [4], in experiment [5] and in [6] was more than 100 µM in each case. In addition, the TGI was more than 100 µM in experiment [7], 4.44 µM in [8], more than 100 µM in experiment [9] and more than 100 µM in experiment [10].

In the case of `COc1cccc(C23CCCC(C2)N(C)CC3OC(=O)c2ccccc2)c1OC` (stereo unspecified), the TGI in experiment [1] is more than 100 µM; in experiment [2], more than 100 µM; in [3] it was 29 µM; in experiment [5], 67.6 µM; in experiment [6], 67.1 µM; in experiment [7] it was 27.4 µM. For the same molecule, the TGI is 40.9 µM in experiment [8], 84.5 µM in [9] and more than 100 µM in experiment [10].

In the case of `COc1cc2c(cc1O)CCN(C)[C@H]2Cc1ccc(Oc2c(O)c(OC)cc3c2C[C@H]2c4c(c(OC)c(OC)c(OC)c4-3)CCN2C)cc1`, the TGI in experiment [1] amounted to 9.4 µM; in experiment [2] it was 10.9 µM; in [3], 12.7 µM; in experiment [4], 13.6 µM; in experiment [5], 11.2 µM; in experiment [6] it was 14.1 µM. The TGI in experiment [7] was found to be 7.65 µM; in [8], 4.86 µM; in experiment [9], 9.44 µM; in experiment [10], 9.77 µM.

Regarding `CC1=NN2C(=N)/C(=C/c3ccccc3)C(=O)N=C2S1`, the TGI in experiment [1] was more than 100 µM; in experiment [2] it was more than 100 µM; in experiment [3] it was more than 100 µM; in experiment [4] it was more than 100 µM; in [5] it was more than 100 µM; in experiment [6], more than 51 µM. The TGI in experiment [7], in [8], in experiment [9] and in experiment [10] was more than 100 µM each time.

As to `CC(=O)O[C@H]1CCC2[C@@H]3CCC4NC(=O)C(C#N)C[C@]4(C)C3CC[C@@]21C` (stereo partly specified), the TGI in experiment [1], in experiment [2], in experiment [3], in experiment [4], in experiment [6] and in experiment [7] was more than 10 µM in each case. For the same molecule, the TGI in experiment [8], in experiment [9] and in experiment [10] was more than 10 µM throughout.

In the case of `Cc1ccc(/C=N\NC(=O)c2ccncc2)s1`, the TGI in experiment [1], in experiment [2], in [3], in experiment [4], in experiment [5] and in experiment [6] was more than 100 µM each time. In addition, the TGI in experiment [7], in experiment [8], in [9] and in experiment [10] was more than 100 µM each time.

`CC1CN=C(c2ccc(-c3nc(-c4ccc(C5=NCC(C)N5)cc4)nc(N(C)C)n3)cc2)N1` (stereo unspecified): the TGI in experiment [1] stood at 4.49 µM; in experiment [2] it was 32 µM; in [3], 2.38 µM; in [4], 5.35 µM; in experiment [5], 3.2 µM; in [6] it was 56.4 µM. The TGI in experiment [7] came out at 14 µM; in experiment [8], 2.49 µM; in [9] it was 3.41 µM; in experiment [10], 19.9 µM.

With `CC(C)(Cc1ccccc1)N1C(=O)N1C(C)(C)Cc1ccccc1`, the TGI is 56.4 µM in experiment [1]; more than 100 µM in [2]; 77.8 µM in [3]; 46 µM in experiment [4]; 60.6 µM in experiment [5]; more than 100 µM in [6]. The TGI was 43.4 µM in experiment [7], more than 100 µM in experiment [8], more than 100 µM in [9] and more than 100 µM in [10].

With `CC1(C)[C@@H](OC(N)=O)C=C[C@]2(CO)[C@H]3CC[C@]4(C)[C@@H](c5ccc(=O)oc5)[C@@H](Cl)C[C@]4(O)C3=CC[C@@H]12`, the GI50 in [3] was 0.00578 µM; in experiment [4], 0.00448 µM; in experiment [5], less than 0.0001 µM; in experiment [6] it was less than 0.0001 µM; in experiment [7] it was 0.00269 µM; in [8] it was 0.00232 µM. The GI50 in [9] is 0.00358 µM; in [10] it was 0.00351 µM. In addition, the TGI in experiment [3] turned out to be 0.0244 µM; in experiment [4] it was 0.0168 µM; in [5], 0.00305 µM; in [6] it was 0.0127 µM; in [7], 0.0158 µM; in [8], 0.0146 µM. The TGI in experiment [9] came out at 0.013 µM; in [10], 0.0134 µM.

As to `Cn1ccc2c(c1=O)C(=O)OC2(C)C`, the TGI in experiment [1], in experiment [2], in experiment [3], in [4], in experiment [6] and in [7] was more than 100 µM each time. Besides, the TGI in [8], in [9] and in [10] was more than 100 µM each time.

Consider `O=NN1CCCS1(=O)=O`, for which the TGI in [1], in experiment [2], in experiment [3], in [4], in experiment [6] and in experiment [7] was more than 100 µM in each case. Also, the TGI in [8], in experiment [9] and in [10] was more than 100 µM throughout.

For the molecule `O=[N+]([O-])c1ccc2c(c1)n1c(N3CCCC3)[n+]3ccccc3c1c1c3cccc[n+]3c(N3CCCC3)n21`, the TGI in experiment [1], in experiment [2], in experiment [3], in experiment [4], in experiment [5] and in [6] was more than 100 µM throughout. The TGI in experiment [7], in experiment [8] and in [9] was more than 100 µM throughout.

As to `COc1cccc(NC(=O)CC(=O)N2N=C(C)C(N=Nc3ccc(C(=O)O)cc3)C2=O)c1` (stereo unspecified), the TGI in [1], in [2], in experiment [3], in experiment [5], in experiment [6] and in experiment [7] was more than 100 µM in each case. In addition, the TGI in experiment [8], in experiment [9] and in experiment [10] was more than 100 µM each time.

`O=[N+]([O-])c1cc(F)ccc1Sc1ccccc1`: the TGI in experiment [1], in experiment [2], in experiment [3], in experiment [4], in experiment [5] and in experiment [6] was more than 10 µM in each case. In addition, the TGI in experiment [7], in experiment [8] and in experiment [9] was more than 10 µM in each case.

Turning to `O=c1oc2cccnc2n1CCCCN1CCN(c2ccccc2)CC1`, the TGI in experiment [1], in experiment [2], in experiment [5], in [6], in [7] and in experiment [8] was more than 100 µM each time. Besides, the TGI in experiment [10] was more than 100 µM.

`COC(=O)C1CC23C=CCN4CC(C2C)C2(c5ccccc5NC12)C43` (stereo unspecified): the TGI in experiment [1], in experiment [2], in experiment [3], in experiment [4], in experiment [5] and in experiment [6] was more than 100 µM in each case. For the same molecule, the TGI in experiment [7], in [8] and in experiment [9] was more than 100 µM throughout.

Take `NNC(=O)Cn1ccnn1`: the TGI in experiment [1], in experiment [2], in experiment [3], in experiment [5], in [6] and in [7] was more than 100 µM each time. In experiment [8], the TGI is more than 100 µM.

Regarding `O=C(O)COc1cc(-c2ccccc2)nc2ccccc12`, the TGI in experiment [1], in experiment [2], in experiment [3], in experiment [4], in [5] and in [6] was more than 100 µM in each case. The TGI in experiment [7], in experiment [8] and in experiment [10] was more than 100 µM in each case.

For the molecule `CN(C)CCNC(=O)c1cc(NC(=O)c2cc(NC(=O)CC/C=C3/[C@@H]4CC[C@H]3N=N4)cn2C)cn1C`, the TGI in [1], in experiment [2], in [3], in experiment [4], in experiment [5] and in experiment [6] was more than 100 µM throughout. In addition, the TGI in experiment [7], in [8] and in [10] was more than 100 µM in each case.

`O=C1c2ccccc2C(=O)c2nn(N=P(CP(=Nn3nc4c(n3)C(=O)c3ccccc3C4=O)(c3ccccc3)c3ccccc3)(c3ccccc3)c3ccccc3)nc21`: the TGI in [1], in [2], in experiment [3], in experiment [5], in experiment [6] and in experiment [7] was more than 100 µM each time. In addition, the TGI in [8] and in [9] was more than 100 µM each time.

Take `Cn1c2ccc(C3=NCCN3)cc2c2cc(C3=NCCN3)ccc21`: the TGI in experiment [1], in experiment [2], in experiment [3], in [4], in experiment [5] and in experiment [6] was more than 100 µM throughout. Besides, the TGI in experiment [7], in experiment [8] and in [10] was more than 100 µM throughout.
